In ChEMBL document CHEMBL1151450, “Differential activities of newer antifungal agents against Candida albicans and Candida parapsilosis biofilms” (2008):
Values after ≈ are worked out from the molar mass of the structure shown. Active and inactive are the calls of the source. No cut-off for these calls is given here. *1 amine or outer side, *2 acyl side, *3 side chain or, on linkers, in order; H or OH if unused. Where a SMILES comes first, the peptide text is derived from it. Bridges are numbered along the chain shown (N, C = ends). [ ]: non-standard residue; d: D form. The star is where a group is joined. pTerphenylCO(4''-OnC5H11) = CCCCCOc1ccc(-c2ccc(-c3ccc(C(=O)*)cc3)cc2)cc1; Orn(4R-OH,5R-OH) = O=C([C@H](C[C@@H](O)[C@@H](O)N[*:3])N[*:1])[*:2]; hTyr(3S-OH,4S-OH) = N[C@H](C(=O)O)[C@H](O)[C@@H](O)c1ccc(O)cc1; Pro(3S-OH,4S-Me) = C[C@H]1CN[C@H](C(=O)O)[C@H]1O; Hyp = O=C(O)[C@@H]1C[C@@H](O)CN1

Experiments:
[1] = tested on: Candida albicans; experiment: Antifungal activity against Candida albicans M61 grown as biofilm assessed as 50% reduction in metabolic activity of biofilm at 64 mg/liter after 24 hrs by XTT assay; format: functional, organism-based
[2] = tested on: Candida parapsilosis; experiment: Antifungal activity against Candida parapsilosis PA/71 grown as planktonic cell assessed as minimum drug level required to decrease turbidity by 50% after 24 hrs by CLSI M27-A2 method; format: functional; details: Lodderomyces parapsilosis, PA/71, 24 h
[3] = tested on: Candida albicans; experiment: Antifungal activity against Candida albicans GDH2346 grown as biofilm assessed as 50% reduction in metabolic activity of biofilm at 64 mg/liter after 24 hrs by XTT assay; format: functional, organism-based
[4] = tested on: Candida parapsilosis; experiment: Antifungal activity against Candida parapsilosis PA/71 grown as biofilm assessed as 50% reduction in metabolic activity of biofilm at 64 mg/liter after 24 hrs by XTT assay; format: functional, organism-based
[5] = tested on: Candida albicans; experiment: Antifungal activity against Candida albicans M61 grown as planktonic cell assessed as minimum drug level required to decrease turbidity by 50% after 24 hrs by CLSI M27-A2 method; format: functional; details: M61, 24 h
[6] = tested on: Candida parapsilosis; experiment: Antifungal activity against Candida parapsilosis PA/71 grown as biofilm assessed as 50% reduction in metabolic activity of biofilm after 24 hrs by XTT assay; format: functional; details: Lodderomyces parapsilosis, PA/71, 24 h
[7] = tested on: Candida albicans; experiment: Antifungal activity against Candida albicans GDH2346 grown as planktonic cell assessed as minimum drug level required to decrease turbidity by 50% after 24 hrs by CLSI M27-A2 method; format: functional; details: GDH2346, 24 h
[8] = tested on: Candida parapsilosis; experiment: Antifungal activity against Candida parapsilosis PA/71 grown as biofilm >2 mg/liter after 24 hrs by XTT assay; format: functional, organism-based
[9] = tested on: Candida albicans; experiment: Antifungal activity against Candida albicans M61 grown as biofilm assessed as maximum inhibition of biofilm metabolic activity at 2 mg/liter after 24 hrs by XTT assay relative to control; format: functional; details: M61, 24 h
[10] = tested on: Candida albicans; experiment: Antifungal activity against Candida albicans M61 grown as biofilm at >2 mg/liter after 24 hrs by XTT assay; format: functional, organism-based
[11] = tested on: Candida albicans; experiment: Antifungal activity against Candida albicans M61 grown as biofilm assessed as 50% reduction in metabolic activity of biofilm at 0.06 mg/liter after 24 hrs by XTT assay; format: functional, organism-based
[12] = tested on: Candida albicans; experiment: Antifungal activity against Candida albicans GDH2346 grown as biofilm assessed as 50% reduction in metabolic activity of biofilm at 0.03 mg/liter after 24 hrs by XTT assay; format: functional, organism-based
[13] = tested on: Candida albicans; experiment: Antifungal activity against Candida albicans GDH2346 grown as biofilm >2 mg/liter after 24 hrs by XTT assay; format: functional, organism-based
[14] = tested on: Candida albicans; experiment: Antifungal activity against Candida albicans GDH2346 grown as biofilm assessed as maximum inhibition of biofilm metabolic activity at 2 mg/liter after 24 hrs by XTT assay relative to control; format: functional; details: GDH2346, 24 h
[15] = tested on: Candida parapsilosis; experiment: Antifungal activity against Candida parapsilosis PA/71 grown as biofilm assessed as 50% reduction in metabolic activity of biofilm at 256 mg/liter after 24 hrs by XTT assay; format: functional, organism-based
[16] = tested on: Candida albicans; experiment: Antifungal activity against Candida albicans GDH2346 grown as biofilm assessed as 50% reduction in metabolic activity of biofilm at 256 mg/liter after 24 hrs by XTT assay; format: functional, organism-based
[17] = tested on: Candida albicans; experiment: Antifungal activity against Candida albicans M61 grown as biofilm assessed as 50% reduction in metabolic activity of biofilm at 256 mg/liter after 24 hrs by XTT assay; format: functional, organism-based
[18] = tested on: Candida albicans; experiment: Antifungal activity against Candida albicans GDH2346 grown as biofilm assessed as 50% reduction in metabolic activity of biofilm after 24 hrs by XTT assay; format: functional; details: GDH2346, 24 h
[19] = tested on: Candida albicans; experiment: Antifungal activity against Candida albicans M61 grown as biofilm assessed as maximum inhibition of biofilm metabolic activity at 0.5 mg/liter after 24 hrs by XTT assay relative to control; format: functional; details: M61, 24 h
[20] = tested on: Candida albicans; experiment: Antifungal activity against Candida albicans M61 grown as biofilm assessed as 50% reduction in metabolic activity of biofilm after 24 hrs by XTT assay; format: functional; details: M61, 24 h
[21] = tested on: Candida albicans; experiment: Antifungal activity against Candida albicans GDH2346 grown as biofilm assessed as maximum inhibition of biofilm metabolic activity at 8 mg/liter after 24 hrs by XTT assay relative to control; format: functional; details: GDH2346, 24 h

SMILES: CC[C@@H]([C@H](C)O)n1ncn(-c2ccc(N3CCN(c4ccc(OC[C@@H]5CO[C@@](Cn6cncn6)(c6ccc(F)cc6F)C5)cc4)CC3)cc2)c1=O [POSACONAZOLE]
- Activity [1]: inactive
- MIC [2]: 0.01 µg/mL (≈ 0.0143 µM)
- Activity [3]: inactive
- Activity [4]: inactive
- MIC [5]: ≤ 0.001 µg/mL
- MIC [6]: > 256 µg/mL
- MIC [7]: ≤ 0.001 µg/mL

SMILES: CC[C@H](C)C[C@H](C)CCCCCCCCC(=O)N[C@H]1C[C@@H](O)[C@@H](NCCN)NC(=O)[C@@H]2[C@@H](O)CCN2C(=O)[C@H]([C@H](O)CCN)NC(=O)[C@H]([C@H](O)[C@@H](O)c2ccc(O)cc2)NC(=O)[C@@H]2C[C@@H](O)CN2C(=O)[C@H]([C@@H](C)O)NC1=O [CASPOFUNGIN]
- MIC [2]: 0.06 µg/mL (≈ 0.0549 µM)
- Activity [8]: Active
- inhibition at 2 µg/mL [9]: 30%
- Activity [10]: Active
- MIC [5]: 0.06 µg/mL (≈ 0.0549 µM)
- MIC [6]: 1 µg/mL (≈ 0.915 µM)
- Activity [11]: Active
- Activity [12]: Active
- MIC [7]: 0.03 µg/mL (≈ 0.0274 µM)
- Activity [13]: Active
- inhibition at 2 µg/mL [14]: 30%

SMILES: C[C@@H](c1ncncc1F)[C@](O)(Cn1cncn1)c1ccc(F)cc1F [VORICONAZOLE]
- MIC [2]: 0.03 µg/mL (≈ 0.0859 µM)
- Activity [15]: inactive
- MIC [5]: 0.01 µg/mL (≈ 0.0286 µM)
- Activity [16]: inactive
- Activity [17]: inactive
- MIC [6]: 256 µg/mL (≈ 733 µM)
- MIC [7]: 4 µg/mL (≈ 11.5 µM)

SMILES: CCCCCOc1ccc(-c2ccc(-c3ccc(C(=O)N[C@H]4C[C@@H](O)[C@@H](O)NC(=O)[C@@H]5[C@@H](O)[C@@H](C)CN5C(=O)[C@H]([C@@H](C)O)NC(=O)[C@H]([C@H](O)[C@@H](O)c5ccc(O)cc5)NC(=O)[C@@H]5C[C@@H](O)CN5C(=O)[C@H]([C@@H](C)O)NC4=O)cc3)cc2)cc1 [ANIDULAFUNGIN] ({pTerphenylCO(4''-OnC5H11)}-[Orn(4R-OH,5R-OH)]T[Hyp][hTyr(3S-OH,4S-OH)]T[Pro(3S-OH,4S-Me)]; lactam 1-C)
- MIC [18]: 0.12 µg/mL (≈ 0.105 µM)
- inhibition at 0.5 µg/mL [19]: 40%
- MIC [2]: 0.125 µg/mL (≈ 0.11 µM)
- MIC [20]: 0.5 µg/mL (≈ 0.438 µM)
- MIC [5]: 0.003 µg/mL (≈ 0.00263 µM)
- MIC [6]: 2 µg/mL (≈ 1.75 µM)
- inhibition at 8 µg/mL [21]: 40%
- MIC [7]: 0.003 µg/mL (≈ 0.00263 µM)
